Measurements as given in PMC3117731, “A systems biology approach to dynamic modeling and inter-subject variability of statin pharmacokinetics in human hepatocytes” (BMC Systems Biology, 2011).
Where “and” joins values, the source holds several entries; their conditions need not be identical. Equal values may be shown once. Read-outs that look alike come from different tables or passages of the source.

What was measured:
CYP3A4 = CYP3A4 (Homo sapiens, UniProt P08684)
[1] = system: primary human hepatocytes; test: Apparent (lumped active transport and passive diffusion) import and export in primary human hepatocytes; assay type: in vitro ADME
Source text: Thus, in the following, mechanisms of active transport and passive diffusion are lumped, resulting in the apparent transport rate for import,(12) [drawing 22]
and in the apparent transport rate for export(13) [drawing 23]
described by the product of apparent rate constant κ im/ex of import or export and extra- or intracellular concentration [drawing 24] , respectively (Figure 3). Consequently, the rate constants κ of import and export are set individually, and were to be estimated in the optimization procedure.

[2] = system: primary human hepatocytes; test: Time-series experiment of atorvastatin biotransformation in primary human hepatocytes (extra- and intracellular metabolites by LC-MS-MS, model fit); assay type: in vitro ADME; settings: individual 1; 10 μM AS
Description: Hepatocytes were cultured on collagen gel precoated 6-well plates at a density of 1.5·10^6 cells/well. Cells were allowed to attach to the collagen layer. After transport, culture media was disposed and attached cells were cultured 24 h at 37°C in a humidified chamber with 95%/5% air/CO2 in serum-free medium WME, supplemented with albumin (0.1% (v/v)), penicillin/streptomycin (100 U/ml), stabilized L-glutamine (2 mM), dexamethasone dihydrogenphosphate (0.025% (v/v)) and ITS-X (5 mg insulin, 3.35 μg natrium-selenit, 2.75 mg transferrin and 1 mg ethanolamine), further named SFM.
At specified time-points, three wells were further treated for the preparation of samples for the measurement of extracellular and intracellular metabolites, respectively. SFM media was collected and 50 μL formic acid and deuterated internal standard was added for the further measurement of extracellular metabolites. Cells were harvested in pre-cooled albumin-free SFM, disrupted by freeze/thaw and ultra-sonification and centrifuged. The supernatant was used for the determination of intracellular metabolites.
MS-MS analysis was performed on an Esquire HCT ultra ion trap mass spectrometer (Bruker Daltonics, Bremen, Germany) coupled to an HPLC 1100-System (Agilent, Waldbronn, Germany) consisting of binary pump G1312A, degasser G1379A, well-plate sampler G1367A and column thermostat G1330B. […] The following parameters were applied: nebulizer 45 psi, dry gas 10 l/min, dry temperature 300°C, capillary 4100 V, scan range 200 - 600 m/z.

PON enzymes = test: PON mediated lactone hydrolysis, rate constants estimated in the optimization procedure; assay type: in vitro ADME, human; settings: nominal value from optimization
Source text: The lactone metabolites are either hydrolyzed chemically to the respective acid metabolites inside (c) or outside (m) the cell, or enzymatically by the contribution of PON enzymes inside the cell. Both reactions are described as first order kinetics(4) [drawing 6]
Therefore, maximal rate constants r max of CYP3A4 hydroxylation and UGT1A3 lactonization were predicted for individual 2 and 3 via the relative abundance approach (equation (11)) using the r max -parameters of individual 1 (Table 3) and the protein concentrations observed on the primary human hepatocytes (Table 4). These parameters were then fixed in the optimization. Further, the rate constants k of PON mediated lactone hydrolysis of individual 2 and 3 were estimated in the optimization procedure.

[3] = set-up: method as in PMID 8272408; settings: estimated from experimental observations; assumed to be same for ASLpOH and ASLoOH; cited from earlier work
[4] = Individual 1, nominal value from optimization, per ml intracellular volume
[5] = Individual 2, predicted via relative abundance approach from individual 1 and CYP3A4 protein concentration
[6] = Individual 1, nominal value from optimization
[7] = Individual 2, nominal value from optimization
[8] = Individual 3, nominal value from optimization

CYP3A4, sequence (P08684 2-503 limits assumed): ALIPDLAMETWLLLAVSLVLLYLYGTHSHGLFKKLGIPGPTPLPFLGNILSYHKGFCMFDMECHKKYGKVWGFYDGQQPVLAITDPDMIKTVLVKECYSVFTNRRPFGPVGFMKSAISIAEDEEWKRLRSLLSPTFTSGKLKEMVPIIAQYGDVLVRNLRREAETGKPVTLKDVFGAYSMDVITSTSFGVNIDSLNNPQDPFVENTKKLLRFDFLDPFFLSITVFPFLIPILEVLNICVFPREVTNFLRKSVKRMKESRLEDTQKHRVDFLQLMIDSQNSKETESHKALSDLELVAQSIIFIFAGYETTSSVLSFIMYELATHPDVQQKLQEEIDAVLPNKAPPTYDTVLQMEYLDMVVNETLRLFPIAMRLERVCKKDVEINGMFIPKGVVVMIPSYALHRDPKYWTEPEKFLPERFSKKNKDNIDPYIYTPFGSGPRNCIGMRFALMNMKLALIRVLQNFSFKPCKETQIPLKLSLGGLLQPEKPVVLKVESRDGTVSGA

| Molecule | rmax,3A4 (maximal rate of CYP3A4 hydroxylation to the labelled metabolite) (CYP3A4; [4]) | rmax,3A4 (maximal rate of CYP3A4 hydroxylation to the labelled metabolite) (CYP3A4; [5]) | κex (apparent rate constant of export) [1, 6] | κim (apparent rate constant of import) [1, 6] | κex (apparent rate constant of export) [1, 7] | κim (apparent rate constant of import) [1, 7] | κex (apparent rate constant of export) [1, 8] | κim (apparent rate constant of import) [1, 8] | ratio of intracellular AUC 0-600 min to extracellular AUC 0-600 min [2] | ratio of intracellular c max to extracellular c max [2] | κPON (rate constant of PON mediated lactone hydrolysis) (PON enzymes; Individual 1) | κPON (rate constant of PON mediated lactone hydrolysis) (PON enzymes; Individual 2) | κPON (rate constant of PON mediated lactone hydrolysis) (PON enzymes; Individual 3) | kCR (rate constant of spontaneous hydrolysis of the lactone) [3] |
| --- | --- | --- | --- | --- | --- | --- | --- | --- | --- | --- | --- | --- | --- | --- |
| CC(C)c1c(C(=O)Nc2ccccc2O)c(-c2ccccc2)c(-c2ccc(F)cc2)n1CC[C@@H]1C[C@@H](O)CC(=O)O1 [ASLoOH, ortho-hydroxy-atorvastatin lactone] | 2756 pmol/min/mL | 1640 pmol/min/mL | 2.67 µL/min | 26.1 µL/min | 86.3 µL/min | 530 µL/min | 0.77 µL/min | 2.43 µL/min | – | – | – | – | – | – |
| hydroxy-atorvastatin lactones (para- and ortho-) [ASLOH] | – | – | – | – | – | – | – | – | – | – | 280 10^-3 min^-1 | 545 10^-3 min^-1 | 82.9 10^-3 min^-1 | – |
| CC(C)c1c(C(=O)Nc2ccccc2)c(-c2ccccc2)c(-c2ccc(F)cc2)n1CC[C@@H]1C[C@@H](O)CC(=O)O1 [ASL, atorvastatin lactone] | – | – | 21.8 µL/min | 275 µL/min | 2.48 µL/min | 25.8 µL/min | 10.5 µL/min | 82.7 µL/min | – | – | 308 10^-3 min^-1 | 99.2 10^-3 min^-1 | 0.00 10^-3 min^-1 | 0.0025 min⁻¹ |

Second part, led by results:

| rmax,3A4 (maximal rate of CYP3A4 hydroxylation to the labelled metabolite) (CYP3A4; [4]) | rmax,3A4 (maximal rate of CYP3A4 hydroxylation to the labelled metabolite) (CYP3A4; [5]) | κex (apparent rate constant of export) [1, 6] | κim (apparent rate constant of import) [1, 6] | κex (apparent rate constant of export) [1, 7] | κim (apparent rate constant of import) [1, 7] | κex (apparent rate constant of export) [1, 8] | κim (apparent rate constant of import) [1, 8] | ratio of intracellular AUC 0-600 min to extracellular AUC 0-600 min [2] | ratio of intracellular c max to extracellular c max [2] | Molecule | κPON (rate constant of PON mediated lactone hydrolysis) (PON enzymes; Individual 1) | κPON (rate constant of PON mediated lactone hydrolysis) (PON enzymes; Individual 2) | κPON (rate constant of PON mediated lactone hydrolysis) (PON enzymes; Individual 3) | kCR (rate constant of spontaneous hydrolysis of the lactone) [3] |
| --- | --- | --- | --- | --- | --- | --- | --- | --- | --- | --- | --- | --- | --- | --- |
| 3345 pmol/min/mL | 1991 pmol/min/mL | 1.60 µL/min | 0.39 µL/min | 3.62 µL/min | 0.22 µL/min | 0.91 µL/min | 0.00 µL/min | 4.5 | 2.5 | CC(C)c1c(C(=O)Nc2ccccc2O)c(-c2ccccc2)c(-c2ccc(F)cc2)n1CCC(O)CC(O)CC(=O)O (stereo not shown) [ASoOH, ortho-hydroxy-atorvastatin acid] | – | – | – | – |
| 1228 pmol/min/mL | 731 pmol/min/mL | 1.13 µL/min and 33.7 µL/min | – | 1.01 µL/min and 7.24 µL/min | – | 0.59 µL/min and 8.59 µL/min | – | 38.2 | 34.5 | CC(C)c1c(C(=O)Nc2ccc(O)cc2)c(-c2ccccc2)c(-c2ccc(F)cc2)n1CC[C@@H]1C[C@@H](O)CC(=O)O1 [ASLpOH, para-hydroxy-atorvastatin lactone] | – | – | – | – |
| 1108 pmol/min/mL | 660 pmol/min/mL | 0.80 µL/min | 3.96 µL/min | 1.25 µL/min | 2.01 µL/min | 0.52 µL/min | 2.53 µL/min | – | – | CC(C)c1c(C(=O)Nc2ccc(O)cc2)c(-c2ccccc2)c(-c2ccc(F)cc2)n1CC[C@@H](O)C[C@@H](O)CC(=O)O [ASpOH, para-hydroxy-atorvastatin acid] | – | – | – | – |
